From PubChem BioAssay AID2060908 (Molecular Pharmacology Branch, DTP, NCI, 2025)

Test system: 186277-243-T-J2-PDC complex spheroids, viability
Assay: Anticancer human tumor 186277-243-T-J2-PDC patient-derived colon adenocarcinoma cell line growth inhibition [RAS]
Details: for IC50: curve of first compound; for viability, T/C: stronger effect = lower value
Summary of the method: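 Tumour cells grown as complex spheroids with HUVEC endothelial cells and mesenchymal stem cells, treated with RAS pathway inhibitor combinations. Each agent spans half-log steps from near clinical Cmax, or 10 microM where Cmax is unknown.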

[1] = second compound 0.000949 µM, first compound 0.00316 µM
[2] = second compound 0.000949 µM, first compound 0.01 µM
[3] = second compound 0.000949 µM, first compound 0.0316 µM
[4] = second compound 0.000949 µM, first compound 0.1 µM
[5] = second compound 0.000949 µM, first compound 0.316 µM
[6] = second compound 0.000949 µM, first compound 1 µM
[7] = second compound 0.003 µM, first compound 0.00316 µM
[8] = second compound 0.003 µM, first compound 0.01 µM
[9] = second compound 0.003 µM, first compound 0.0316 µM
[10] = second compound 0.003 µM, first compound 0.1 µM
[11] = second compound 0.003 µM, first compound 0.316 µM
[12] = second compound 0.003 µM, first compound 1 µM
[13] = second compound 0.00949 µM, first compound 0.00316 µM
[14] = second compound 0.00949 µM, first compound 0.01 µM
[15] = second compound 0.00949 µM, first compound 0.0316 µM
[16] = second compound 0.00949 µM, first compound 0.1 µM
[17] = second compound 0.00949 µM, first compound 0.316 µM
[18] = second compound 0.00949 µM, first compound 1 µM
[19] = second compound 0.03 µM, first compound 0.00316 µM
[20] = second compound 0.03 µM, first compound 0.01 µM
[21] = second compound 0.03 µM, first compound 0.0316 µM
[22] = second compound 0.03 µM, first compound 0.1 µM
[23] = second compound 0.03 µM, first compound 0.316 µM
[24] = second compound 0.03 µM, first compound 1 µM
[25] = second compound 0.0949 µM, first compound 0.00316 µM
[26] = second compound 0.0949 µM, first compound 0.01 µM
[27] = second compound 0.0949 µM, first compound 0.0316 µM
[28] = second compound 0.0949 µM, first compound 0.1 µM
[29] = second compound 0.0949 µM, first compound 0.316 µM
[30] = second compound 0.0949 µM, first compound 1 µM
[31] = second compound 0.3 µM, first compound 0.00316 µM
[32] = second compound 0.3 µM, first compound 0.01 µM
[33] = second compound 0.3 µM, first compound 0.0316 µM
[34] = second compound 0.3 µM, first compound 0.1 µM
[35] = second compound 0.3 µM, first compound 0.316 µM
[36] = second compound 0.3 µM, first compound 1 µM
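Also: spheroids exposed to compounds for 7 days before viability read.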

Question: For `C=CC(=O)Nc1cc(Nc2nccc(-c3cn(C)c4ccccc34)n2)c(OC)cc1N(C)CCN(C)C` + CCn1c(-c2cc(N3CCN(C)CC3)cnc2C(C)OC)c2c3cc(ccc31)-c1csc(n1)CC(NC(=O)C1CC1C)C(=O)N1CCCC(N1)C(=O)OCC(C)(C)C2, which IC50 (second compound 0.000949 µM) is on record?
Answer: > 1000 nM

Question: What about the IC50 (second compound 0.003 µM) of the same compound?
Answer: 348 nM

Question: What about the IC50 (second compound 0.00949 µM) of the same compound?
Answer: 10.9 nM

Question: And the IC50 (second compound 0.03 µM)?
Answer: < 3.16 nM

Question: And the IC50 (second compound 0.0949 µM)?
Answer: < 3.16 nM

Question: What about the IC50 (second compound 0.3 µM) of the same compound?
Answer: < 3.16 nM

Question: And the viability, T/C [1]?
Answer: 103%

Question: What about the viability, T/C [2] of the same compound?
Answer: 112%

Question: And the viability, T/C [3]?
Answer: 107%

Question: And the viability, T/C [4]?
Answer: 115%

Question: And the viability, T/C [5]?
Answer: 85.2%

Question: And the viability, T/C [6]?
Answer: 52.6%

Question: What about the viability, T/C [7] of the same compound?
Answer: 106%

Question: And the viability, T/C [8]?
Answer: 104%

Question: And the viability, T/C [9]?
Answer: 91.8%

Question: And the viability, T/C [10]?
Answer: 81.6%

Question: And the viability, T/C [11]?
Answer: 52.3%

Question: What about the viability, T/C [12] of the same compound?
Answer: 15.8%

Question: What about the viability, T/C [13] of the same compound?
Answer: 58.3%

Question: And the viability, T/C [14]?
Answer: 48.7%

Question: And the viability, T/C [15]?
Answer: 40.6%

Question: And the viability, T/C [16]?
Answer: 28.8%

Question: What about the viability, T/C [17] of the same compound?
Answer: 10.8%

Question: What about the viability, T/C [18] of the same compound?
Answer: 5.19%

Question: What about the viability, T/C [19] of the same compound?
Answer: 18.4%

Question: What about the viability, T/C [20] of the same compound?
Answer: 15.4%

Question: What about the viability, T/C [21] of the same compound?
Answer: 12.1%

Question: What about the viability, T/C [22] of the same compound?
Answer: 9.43%

Question: What about the viability, T/C [23] of the same compound?
Answer: 5.63%

Question: What about the viability, T/C [24] of the same compound?
Answer: 4.11%

Question: And the viability, T/C [25]?
Answer: 7.42%

Question: What about the viability, T/C [26] of the same compound?
Answer: 6.89%

Question: And the viability, T/C [27]?
Answer: 5.88%

Question: And the viability, T/C [28]?
Answer: 4.8%

Question: And the viability, T/C [29]?
Answer: 4.22%

Question: What about the viability, T/C [30] of the same compound?
Answer: 2.72%

Question: And the viability, T/C [31]?
Answer: 6%

Question: And the viability, T/C [32]?
Answer: 6%

Question: What about the viability, T/C [33] of the same compound?
Answer: 4.87%

Question: And the viability, T/C [34]?
Answer: 4.47%

Question: What about the viability, T/C [35] of the same compound?
Answer: 4.17%

Question: What about the viability, T/C [36] of the same compound?
Answer: 2.68%

Question: Which results are given for `CC(Nc1ccc2c(c1)OCCn1cc(N3C(=O)OCC3C(F)F)nc1-2)C(N)=O` (stereo unspecified) + CCn1c(-c2cc(N3CCN(C)CC3)cnc2C(C)OC)c2c3cc(ccc31)-c1csc(n1)CC(NC(=O)C1CC1C)C(=O)N1CCCC(N1)C(=O)OCC(C)(C)C2?
Answer: IC50 (second compound 0.000949 µM): 347 nM; IC50 (second compound 0.003 µM): 88.5 nM; IC50 (second compound 0.00949 µM): < 31.6 nM; IC50 (second compound 0.03 µM): < 31.6 nM; IC50 (second compound 0.0949 µM): < 31.6 nM; IC50 (second compound 0.3 µM): < 31.6 nM; viability, T/C [3]: 97.7%; viability, T/C [4]: 86.3%; viability, T/C [5]: 48.7%; viability, T/C [6]: 27.3%; viability, T/C (second compound 0.000949 µM, first compound 3.16 µM): 14.1%; viability, T/C (second compound 0.000949 µM, first compound 10 µM): 7.59%; viability, T/C [9]: 81.8%; viability, T/C [10]: 46.6%; viability, T/C [11]: 16.8%; viability, T/C [12]: 8.63%; viability, T/C (second compound 0.003 µM, first compound 3.16 µM): 3.59%; viability, T/C (second compound 0.003 µM, first compound 10 µM): 2.34%; viability, T/C [15]: 28%; viability, T/C [16]: 14.8%; viability, T/C [17]: 4.68%; viability, T/C [18]: 2.07%; viability, T/C (second compound 0.00949 µM, first compound 3.16 µM): 1.18%; viability, T/C (second compound 0.00949 µM, first compound 10 µM): 0.72%; viability, T/C [21]: 8.29%; viability, T/C [22]: 4.59%; viability, T/C [23]: 1.59%; viability, T/C [24]: 0.91%; viability, T/C (second compound 0.03 µM, first compound 3.16 µM): 0.49%; viability, T/C (second compound 0.03 µM, first compound 10 µM): 0.23%; viability, T/C [27]: 4.51%; viability, T/C [28]: 2.41%; viability, T/C [29]: 1.01%; viability, T/C [30]: 0.59%; viability, T/C (second compound 0.0949 µM, first compound 3.16 µM): 0.45%; viability, T/C (second compound 0.0949 µM, first compound 10 µM): 0.24%; viability, T/C [33]: 3.65%; viability, T/C [34]: 2.08%; viability, T/C [35]: 0.89%; viability, T/C [36]: 0.55%; viability, T/C (second compound 0.3 µM, first compound 3.16 µM): 0.35%; viability, T/C (second compound 0.3 µM, first compound 10 µM): 0.29%

Question: With `O=C(c1ccc(F)c(F)c1Nc1ccc(I)cc1F)N1CC(O)([C@@H]2CCCCN2)C1` + CCn1c(-c2cc(N3CCN(C)CC3)cnc2C(C)OC)c2c3cc(ccc31)-c1csc(n1)CC(NC(=O)C1CC1C)C(=O)N1CCCC(N1)C(=O)OCC(C)(C)C2 as the compound, how does the IC50 (second compound 0.000949 µM) read?
Answer: 64 nM

Question: What about the IC50 (second compound 0.003 µM) of the same compound?
Answer: 31.5 nM

Question: And the IC50 (second compound 0.00949 µM)?
Answer: < 3.16 nM

Question: And the IC50 (second compound 0.03 µM)?
Answer: < 3.16 nM

Question: And the IC50 (second compound 0.0949 µM)?
Answer: < 3.16 nM

Question: And the IC50 (second compound 0.3 µM)?
Answer: < 3.16 nM

Question: What about the viability, T/C [1] of the same compound?
Answer: 92.7%

Question: What about the viability, T/C [2] of the same compound?
Answer: 89.7%

Question: And the viability, T/C [3]?
Answer: 83%

Question: What about the viability, T/C [4] of the same compound?
Answer: 29.1%

Question: What about the viability, T/C [5] of the same compound?
Answer: 8.1%

Question: What about the viability, T/C [6] of the same compound?
Answer: 4.25%

Question: What about the viability, T/C [7] of the same compound?
Answer: 114%

Question: What about the viability, T/C [8] of the same compound?
Answer: 97.8%

Question: And the viability, T/C [9]?
Answer: 47.8%

Question: And the viability, T/C [10]?
Answer: 18.8%

Question: And the viability, T/C [11]?
Answer: 6.27%

Question: What about the viability, T/C [12] of the same compound?
Answer: 3.79%

Question: And the viability, T/C [13]?
Answer: 43.6%

Question: What about the viability, T/C [14] of the same compound?
Answer: 30.6%

Question: And the viability, T/C [15]?
Answer: 13.6%

Question: What about the viability, T/C [16] of the same compound?
Answer: 7.57%

Question: And the viability, T/C [17]?
Answer: 4.59%

Question: What about the viability, T/C [18] of the same compound?
Answer: 3.19%

Question: And the viability, T/C [19]?
Answer: 14.9%

Question: And the viability, T/C [20]?
Answer: 9.48%

Question: And the viability, T/C [21]?
Answer: 6.73%

Question: What about the viability, T/C [22] of the same compound?
Answer: 3.92%

Question: And the viability, T/C [23]?
Answer: 3.2%

Question: And the viability, T/C [24]?
Answer: 2.56%

Question: And the viability, T/C [25]?
Answer: 6.07%

Question: And the viability, T/C [26]?
Answer: 5.43%

Question: What about the viability, T/C [27] of the same compound?
Answer: 4.04%

Question: What about the viability, T/C [28] of the same compound?
Answer: 2.64%

Question: What about the viability, T/C [29] of the same compound?
Answer: 2.57%

Question: What about the viability, T/C [30] of the same compound?
Answer: 2.4%

Question: What about the viability, T/C [31] of the same compound?
Answer: 5%

Question: What about the viability, T/C [32] of the same compound?
Answer: 4.75%

Question: What about the viability, T/C [33] of the same compound?
Answer: 2.99%

Question: What about the viability, T/C [34] of the same compound?
Answer: 2.73%

Question: What about the viability, T/C [35] of the same compound?
Answer: 2.91%

Question: What about the viability, T/C [36] of the same compound?
Answer: 2.4%
